Type in all cases: in vivo, rat
Test [1] concerns aged-impaired rats. Kind of test: Radial arm maze, 5-hr delay, acute Compound 1 via PO (Example 7). To be noted: Compound 1 10 mg/kg PO 30-40 min before information trial. An excerpt:
All rats were screened in a standardized assessment of spatial cognition before the commencement of drug studies. The background assessment used a well-established Morris water maze protocol as described in detail elsewhere (Gallagher et al, 1993). Briefly, the rats were trained for 8 days (three trials per day) to locate a camouflaged escape platform that remained at the same location throughout training in a water maze. Every sixth trial consisted of a probe trial (free swim with no escape platform) that served to assess the development of a spatially localized search for the escape platform. During these probe trials, a learning index was generated from the proximity of the rat to the escape platform and was used to define impairment in the aged rats. The learning index is the sum of weighted proximity scores obtained during probe trials, with low scores reflecting a search near the escape platform and high scores reflecting searches farther away from the platform (Gallagher et al, 1993). Cue training (visible escape platform) occurred on the last day of training to test for sensorimotor and motivational factors independent of spatial learning. Aged rats with impaired spatial memory performance (i.e., those with learning index scores outside the young ‘normative’ range) but successful cued training performance were used for the studies as described below. […]

In test [2] the test system is aged-impaired rats.
Test [3] deals with aged-impaired rats. Nature of the test: Water maze, acute and chronic Compound 1 (Example 7). Conditions: Compound 1 10 mg/kg IP. An excerpt:
Rats were trained and tested in a novel water maze environment to assess the effect of the treatments. The water maze used here was housed in a different room and was surrounded by curtains with a novel set of patterns relative to the maze used for initial assessment of cognitive status. The training and testing protocol used was identical to the spatial learning-activated protocol described in Haberman et al., (2008, Proceedings of the National Academy of Sciences USA, 105, 10601-10606). The task required rats to swim to a […] escape platform at a fixed location in the presence of spatial cues for 8 training trials with an inter-trial interval of 8 min. An hour after the last training trial, rats were given a probe test in the absence of the escape platform (free swim) to assess the memory of the platform location as measured by time spent searching at the target location.
To assess the acute and chronic effects of Compound 1 treatment, rats received 15-16 days of drug injections with assessment on the water maze on the first day (acute effect) and last day (chronic effect) of treatment. Different surrounding spatial cues and escape location in the water maze were used for the initial and subsequent assessments. Compound 1 was given at 10 mg/kg using intraperitoneal injection (IP) at a volume of 1 ml/kg. […]

Where two headings read alike, the source gives them in different places.

In the case of `COCc1nnc2n1Cc1c(C#Cc3cnc(OC)s3)ncn1-c1ccc(Cl)cc1-2` [Compound 1], the “number of errors in the radial arm maze vs vehicle” value in the test on aged-impaired rats [1] is given as “fewer errors”. In addition, the “efficacy of Compound 1 on its own in the radial arm maze” value with aged-impaired rats [2] (Compound 1 2.5 mg/kg IP alone) and in the test on aged-impaired rats [2] (Compound 1 5 mg/kg IP alone) was “subtherapeutic” throughout. For the same compound, the “time spent in the target quadrant of the Morris Water Maze” value in the test with aged-impaired rats [3] (acute (first day of treatment)) and with aged-impaired rats [3] (chronic (last day of 15-16 days of injections)) was “spent more time in the target quadrant” throughout.

Source of the values: patent US20230270753A1, “COMBINATIONS OF GABAA ALPHA 5 AGONISTS AND SV2A INHIBITORS AND METHODS OF USING IN THE TREATMENT OF COGNITIVE IMPAIRMENT” (AGENEBIO, INC., priority 2020, published 2023).
